# According to patent US11059795B2, “Androgen receptor modulators and methods for their use” (ESSA Pharma, Inc., priority 2018, dated 2021):
# How the values were obtained:
# [1] = molecular target: T1, androgen receptor (AR) (Homo sapiens, UniProt P10275, T878A); assay: Androgen-induced PSA (6.1 kb)-luciferase reporter assay in LNCaP cells; type: cell-based; settings: LNCaP cells transfected with PSA (6.1 kb)-luciferase reporter, R1881 1 nM, 24 h; read-out: PSA-Luc IC50 Range
# T1 construct: LNCaP cells were transiently transfected with the PSA (6.1 kb)-luciferase reporter for 24 h; endogenous in cells; host or cells: LNCaP
# T1 sequence (P10275 1-920 T878A): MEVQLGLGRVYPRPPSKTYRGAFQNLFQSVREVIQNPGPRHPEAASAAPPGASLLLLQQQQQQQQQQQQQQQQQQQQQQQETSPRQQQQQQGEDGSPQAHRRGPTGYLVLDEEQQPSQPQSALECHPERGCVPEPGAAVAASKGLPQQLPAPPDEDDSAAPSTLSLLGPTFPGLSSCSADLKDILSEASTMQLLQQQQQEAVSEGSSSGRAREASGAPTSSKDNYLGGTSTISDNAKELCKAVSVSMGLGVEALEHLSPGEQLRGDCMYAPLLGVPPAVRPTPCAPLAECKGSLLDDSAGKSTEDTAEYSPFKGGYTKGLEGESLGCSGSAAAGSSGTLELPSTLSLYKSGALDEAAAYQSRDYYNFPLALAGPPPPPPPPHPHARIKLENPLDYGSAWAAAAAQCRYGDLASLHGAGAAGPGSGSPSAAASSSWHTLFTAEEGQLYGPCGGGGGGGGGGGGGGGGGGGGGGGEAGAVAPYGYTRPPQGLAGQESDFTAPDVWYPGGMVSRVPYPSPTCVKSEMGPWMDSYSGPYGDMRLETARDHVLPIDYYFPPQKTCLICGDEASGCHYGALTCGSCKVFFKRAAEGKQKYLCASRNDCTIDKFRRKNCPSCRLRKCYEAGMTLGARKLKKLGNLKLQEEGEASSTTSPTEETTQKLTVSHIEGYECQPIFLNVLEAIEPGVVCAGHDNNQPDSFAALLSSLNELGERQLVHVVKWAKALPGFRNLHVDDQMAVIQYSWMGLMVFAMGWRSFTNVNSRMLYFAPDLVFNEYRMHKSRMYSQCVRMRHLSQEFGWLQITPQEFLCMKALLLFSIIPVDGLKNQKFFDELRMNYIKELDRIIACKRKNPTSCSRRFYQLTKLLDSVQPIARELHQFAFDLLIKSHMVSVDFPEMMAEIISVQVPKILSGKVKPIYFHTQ
# Method in brief: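 LNCaP cells carrying a PSA (6.1 kb) promoter-luciferase reporter with AREs; androgen-induced firefly luciferase read from lysates for 10 s. RLU normalized to protein content; IC50 calculated from the normalized data.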
# [2] = Microsomal stability assay, human liver microsomes; type: in vitro ADME; settings: pH 7.4, 1 μM compound, 0.5 mg/mL protein, 37° C., read-out: HLM +/− NADPH: Clint (μL/min/mg protein)
# Method in brief: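 Compound at 1 μM was incubated at 37° C with 0.5 mg/mL liver microsomes and 1 mM NADPH and/or 1 mM UDPGA (with alamethicin) in 100 mM potassium phosphate pH 7.4, 3 mM MgCl2. Samples were taken at 0, 15, 30 and 60 min and measured by LC/MS/MS. t½ came from compound loss relative to 0 min, and Clint was scaled with 45 mg microsomal protein/g liver.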
# [3] = Hepatocyte stability assay, mouse hepatocytes; type: in vitro ADME; settings: mouse, cryopreserved hepatocytes, 1 μM compound, 0.5 million cells/mL, 37° C., read-out: MH +/− NADPH: Clint (μL/min/million cells)
# Source text: The […] of in vitro intrinsic clearance (Clint) for drug candidates in the early discovery stage is common practice in the pharmaceutical industry. The Clint values of drug candidates can help to confirm whether metabolism is the main clearance pathway when it is compared with the total body clearance in vivo. Hepatocytes are among the routinely used in vitro systems for measuring clearance. Hepatocytes have been reported to retain most of the phase I and phase II metabolic activities, and therefore, it is a useful tool to estimate the intrinsic clearance for potential drug candidates.
# Metabolic stability of testing compound were be evaluated using human and mouse hepatocytes and can also be use rat, mouse, or other animal hepatocytes to predict intrinsic clearance. Cryopreserved hepatocytes were removed from the liquid nitrogen tank and thawed in a 37° C. water bath. As soon as the cells pulled away from the vial wall, they were decanted into 48 ml of warm HT medium. Cells were centrifuged for four minutes at 420 rpm (50 g). After removing the supernatant, pellet was re-suspended in warm DMEM medium. Cell density was counted by a hemacytometer.
# The assay was carried out in 96-well microtiter plates. Compounds were incubated for 0, 60, 120, and 180 minutes at 37° C. with hepatocytes. Reaction mixtures (50 μL) contained a final concentration of 1 μM test compound, 0.5 million cells/mL hepatocytes in the DMEM medium. At each of the time points (for example, 0, 1, 2, and 3 hours), 200 μL of quench solution (100% acetonitrile with 0.1% formic acid) with internal standard was transferred to each well. Midazolam was included as a positive control to verify assay performance. Plates were sealed and centrifuged at 4° C. for 15 minutes at 4000 rpm. The supernatant is transferred to fresh plates for LC/MS/MS analysis.
# Summarized conditions (customizable): [Compound]=[…], Positive control: midazolam and/or naloxone, [Hepatocyte]=0.5 million cells/Ml, time=0, 60, 120, and 180 min, t=37° C.
# (§1) All samples were analyzed on LC/MS/MS using an AB Sciex API 4000 instrument, coupled to a Shimadzu LC-20AD LC Pump system. Analytical samples were separated using a Waters Atlantis T3 dC18 reverse phase HPLC column (20 mm×2.1 mm) at a flow rate of 0.5 mL/min. The mobile phase consisted of 0.1% formic acid in water (solvent A) and 0.1% formic acid in 100% acetonitrile (solvent B).
# The extent of metabolism was calculated as the disappearance of the test compound, compared to the 0-min control reaction incubations. Initial rates were calculated for the compound concentration and used to determine t½ values and subsequently, the intrinsic clearance, Clint. Clint=(0.693)(1/t½(min))(mL incubation/million cells)
# [4] = Microsomal stability assay, mouse liver microsomes; type: in vitro ADME; settings: mouse, liver microsomes, pH 7.4, mouse liver microsomes, 1 μM compound, 0.5 mg/mL protein, 37° C.; read-out: MLM +30/− NADPH: Clint (μL/min/mg protein)
# Method: Microsomal stability assay is a widely used in vitro model to characterize the metabolic conversion by phase I enzymes, such as cytochrome P450 (CYP) enzymes. Since metabolism is known to be highly variable in different species, microsomal stability assay is commonly run in multiple species. Metabolic stability of testing compound can be evaluated using human, rat, mouse, or other animal liver or intestine microsomes to predict intrinsic clearance.
# The assay was carried out in 96-well microtiter plates at 37° C. Reaction mixtures (25 μL) contained a final concentration of 1 μM test compound, 0.5 mg/mL liver microsomes protein, and 1 mM NADPH and/or 1 mM UDPGA (with alamethicin) in 100 mM potassium phosphate, pH 7.4 buffer with 3 mM MgCl2. The incubation was done with N=1, but duplicate incubation at each time point can be prepared if necessary. At each of the time points (for example, 0, 15, 30, and 60 minutes), 150 μL of quench solution (100% acetonitrile with 0.1% formic acid) with internal standard was transferred to each well. Besides the zero minute controls, mixtures containing the same components except the NADPH can also be prepared as the negative control. Verapamil was included as a positive control to verify assay performance. Plates were sealed, vortexed, and centrifuged at 4° C. for 15 minutes at 4000 rpm. The supernatant is transferred to fresh plates for LC/MS/MS analysis.
# Summarized conditions: [Compound]=[…], [LM]=0.5 mg/mL, [NADPH]=1 mM and/or [UDPGA]=1 mM, Buffer=100 mM Potassium Phosphate, pH 7.4 with 3 mM MgCl2, Time=0, 15, 30, and 60 min, and Temperature=37° C.
# as §1
# The extent of metabolism is calculated as the disappearance of the test compound, compared to the 0-min time incubation. Initial rates are calculated for the compound concentration and used to determine half-life (t½) values and subsequently, the intrinsic clearance (Clint). Clint=(0.693)(1/t½ (min))(g of liver/kg of body weight)(mL incubation/mg of microsomal protein)(45 mg of microsomal protein/g of liver weight)
Compound,IC50 [1],microsomal CLint at 1 μM [2],hepatocyte CLint at 1 μM [3],microsomal CLint at 1 μM [4]
Cn1c(COc2ccc(C(C)(C)c3cc(Cl)c(OCCCl)c(C#N)c3)cc2)ccc1S(C)(=O)=O [Compound A193],500 to 2000 nM,≥ 48 µL/min/mg,4 to 18 µL/min/1e6 cells,≥ 48 µL/min/mg
COC(=O)Nc1nc(COc2ccc(C(C)(C)c3cc(Cl)c(OCCCl)c(C#N)c3)cc2)co1 [Compound A156],< 500 nM,12 to 48 µL/min/mg,≥ 18 µL/min/1e6 cells,12 to 48 µL/min/mg
"CC(C)(c1ccc(OCc2cc(CN)nc(NS(C)(=O)=O)n2)cc1)c1cc(Cl)c(OCCCl)c(C#N)c1 [Compound A164, N-(4-(aminomethyl)-6-((4-(2-(3-chloro-4-(2-chloroethoxy)-5-cyanophenyl)propan-2-yl)phenoxy)methyl)pyrimidin-2-yl)methanesulfonamide]",500 to 2000 nM,< 12 µL/min/mg,< 4 µL/min/1e6 cells,< 12 µL/min/mg
CSc1nc(COc2ccc(C(C)(C)c3cc(Cl)c(OCCCl)c(C#N)c3)cc2)c(C)o1 [Compound A118],500 to 2000 nM,≥ 48 µL/min/mg,4 to 18 µL/min/1e6 cells,≥ 48 µL/min/mg
CC(C)(c1ccc(OCc2nc(NS(C)(=O)=O)nc3c2CCOC3)cc1)c1cc(Cl)c(OCCCl)c(C#N)c1 [Compound A190],500 to 2000 nM,< 12 µL/min/mg,≥ 18 µL/min/1e6 cells,≥ 48 µL/min/mg
CC(C)(c1ccc(OCc2ncc(S(C)(=O)=O)o2)cc1)c1cc(Cl)c(OCCCl)c(C#N)c1 [Compound A153],500 to 2000 nM,< 12 µL/min/mg,4 to 18 µL/min/1e6 cells,12 to 48 µL/min/mg
Cc1nc(NS(C)(=O)=O)nc(COc2ccc(C(C)(C)c3cc(Cl)c(OCCCl)c(C#N)c3)cc2)c1C [Compound A123],< 500 nM,< 12 µL/min/mg,4 to 18 µL/min/1e6 cells,≥ 48 µL/min/mg
CC(C)(c1ccc(OCc2ccnc(N3CCCS3(=O)=O)n2)cc1)c1cc(Cl)c(OCCCl)c(C#N)c1 [Compound A199],< 500 nM,< 12 µL/min/mg,4 to 18 µL/min/1e6 cells,≥ 48 µL/min/mg
